Patent publication US7875621B2, “Substituted 2-alkyl quinazolinone derivatives as PARP inhibitors” (Janssen Pharmaceutica NV, priority 2004, dated 2011)

What was measured:
[1] = system: infarct size in the heart; conditions: rabbits, cited from earlier work
colitis = conditions: rats, colitis by intraluminal trinitrobenzene sulfonic acid in 50% ethanol; cited from earlier work
TANK-2 enzyme = molecular target: T1, TANK-2 enzyme (Homo sapiens, UniProt Q9H2K2); test: In vitro scintillation proximity assay (SPA) for TANK-2 inhibitory activity; assay type: biochemical; conditions: auto-poly(ADP-ribosyl)ation, [3H]-NAD+, 96- or 384-well Ni Flash plates; read-out: in vitro SPA TANK-2 pIC50 (converted)
T1 construct: inferred from capture on Ni-coated flash plate; made in house
T1 sequence (Q9H2K2 1-1166): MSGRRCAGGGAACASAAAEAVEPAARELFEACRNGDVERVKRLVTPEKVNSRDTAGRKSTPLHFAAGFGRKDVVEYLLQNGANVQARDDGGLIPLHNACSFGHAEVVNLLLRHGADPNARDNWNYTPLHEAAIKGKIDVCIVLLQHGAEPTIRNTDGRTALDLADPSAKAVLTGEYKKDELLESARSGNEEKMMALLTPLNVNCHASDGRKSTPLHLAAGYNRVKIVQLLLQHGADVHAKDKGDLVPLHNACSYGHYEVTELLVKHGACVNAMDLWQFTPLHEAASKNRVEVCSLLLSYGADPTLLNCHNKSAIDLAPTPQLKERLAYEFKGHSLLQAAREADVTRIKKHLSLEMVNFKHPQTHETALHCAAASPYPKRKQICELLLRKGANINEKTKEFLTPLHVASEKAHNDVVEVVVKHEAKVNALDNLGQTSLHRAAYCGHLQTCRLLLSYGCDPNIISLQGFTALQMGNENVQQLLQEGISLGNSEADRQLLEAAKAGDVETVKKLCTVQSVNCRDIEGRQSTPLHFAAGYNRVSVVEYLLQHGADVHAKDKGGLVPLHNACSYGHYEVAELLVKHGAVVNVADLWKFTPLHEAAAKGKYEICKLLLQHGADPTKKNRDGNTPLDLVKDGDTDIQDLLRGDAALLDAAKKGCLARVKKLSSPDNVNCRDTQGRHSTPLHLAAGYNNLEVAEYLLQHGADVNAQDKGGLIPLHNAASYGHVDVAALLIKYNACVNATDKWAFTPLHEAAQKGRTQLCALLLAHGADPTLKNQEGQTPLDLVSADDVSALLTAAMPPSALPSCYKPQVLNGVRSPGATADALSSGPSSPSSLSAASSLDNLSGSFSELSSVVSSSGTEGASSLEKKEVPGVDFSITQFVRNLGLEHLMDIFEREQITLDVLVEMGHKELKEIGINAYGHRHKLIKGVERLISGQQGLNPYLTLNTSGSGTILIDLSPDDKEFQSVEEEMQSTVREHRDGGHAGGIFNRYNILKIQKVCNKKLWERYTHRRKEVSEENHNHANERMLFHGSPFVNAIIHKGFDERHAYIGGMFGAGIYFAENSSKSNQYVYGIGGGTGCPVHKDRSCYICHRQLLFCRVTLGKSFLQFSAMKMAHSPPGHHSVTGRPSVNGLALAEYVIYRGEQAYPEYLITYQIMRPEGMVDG
Protocol: In Vitro Scintillation Proximity Assay (SPA) for TANK-2 Inhibitory Activity
Compounds of the present invention were tested in an in vitro assay based on SPA technology with Ni Flash plates (96 or 384 well).
In principle, the assay relies upon SPA technology for the detection of auto-poly(ADP-ribosyl)ation of TANK-2 protein using [^3H]-nicotinamide adenine dinucleotide ([^3H]-NAD^+) as ADP-ribosyl donor.
A stock solution of [^3H]-NAD^+/NAD was made by adding 64.6 μl of [^3H]-NAD^+ (0.1 mCi/ml, supplier: Perkin Elmer) and 46.7 μl NAD-stock (10.7 mM, stored at −20° C., supplier Roche) to 1888.7 μl assay buffer (60 mM Tris/HCl, pH 7.4; 0.9 mM DTT; 6 mM MgCl2). The TANK-2 enzyme was produced as described in EP1238063. 60 μl of assay buffer, together with 1 μl of compound in DMSO, 20 μl of [^3H]-NAD^+/NAD and 20 μl of TANK-2 enzyme (final concentration 6 μg/ml) was added per well into a 96-well Ni-coated flash plate (Perkin Elmer). After incubation of the mixture for 120 min. at room temperature, the reaction was terminated by adding 60 μl of stopsolution (42.6 mg NAD in 6 ml H2O). The plates were covered with a plate sealer and placed in a TopCountNXT™ (Packard) for scintillation counting. Values were expressed as counts per minute (cpm). For each experiment, controls (containing TANK-2 enzyme and DMSO without compound), a blank incubation (containing DMSO but no TANK-2 enzyme or compound) and samples (containing TANK-2 enzyme and compound dissolved in DMSO) were run in parallel. All compounds tested were dissolved and eventually further diluted in DMSO. In first instance, compounds were tested at a concentration of 10^−5M. […] In each test, the blank value was subtracted from both the control and the sample values. The control sample represented maximal TANK-2 enzyme activity. For each sample, the amount of cpm was expressed as a percentage of the mean cpm value of the controls. When appropriate, IC50-values (concentration of the drug, needed to reduce the TANK-2 enzyme activity to 50% of the control) were computed using linear interpolation between the experimental points just above and below the 50% level. Herein the effects of test compounds are expressed as pIC50 (the negative log value of the IC50-value). As reference compounds, 3-aminobenzamide and 4-amino-1,8-naphtalimide were included to validate the SPA assay. Herein the assay was described using 96-well plates. In the assay using 384-well plates the same final concentrations were used and volumes were adapted.

SMILES: Oc1cccc2c(O)nccc12 [1,5-dihydroxyisoquinoline]
- reduction in infarct size ([1]; single injection 1 mg/kg): 38-48%

SMILES: NC(=O)c1cccc(N)c1 [3-amino-benzamide]
- effect on inflammatory response and distal colon (colitis): reduced the inflammatory response
- reduction in infarct size in the heart ([1]; single injection 10 mg/kg, one minute before occlusion or before reperfusion): 32-42%

SMILES: O=C1NC(CCN2CCC(C(=O)c3ccc(F)cc3)CC2)Nc2ccccc21 (stereo not shown) [Compound 1]
- IC50 (TANK-2 enzyme): > 10 µM
